We go through one molecule from patent publication US9061984B2 (University of Louisville Research Foundation, Inc., priority 2008, dated 2015).

Converted amounts (≈) assume the structure as drawn.

For orientation: GI50 means the concentration giving 50% growth inhibition. As a reminder, the IC50 is the concentration that gives 50% inhibition. The term MIC denotes the least concentration at which growth counts as inhibited.

For data set [1], the system named is VERO cells. The data set can be described thus: Cell growth inhibition bioassay (sulforhodamine B). The format is cell-based, African Green Monkey. The following applies: Chlorocebus sabaeus, Vero; 48 h, SRB; read-out: GI50 in indicated cell line: VERO. A digest of the protocol: (§1)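 Cells were exposed to compound alongside matched solvent controls, then stained with sulforhodamine B. Percent growth inhibition was calculated from dye absorbance against the control.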

Data set [2] in a line: Toxicity to peritoneal macrophages (Trypan Blue count). The format is cell-based, BALB/C mouse. The following applies: BALB/C, mouse, Cytotoxicity Macrophages IC50.
Data set [3] relates to L. braziliensis PER006. Description: Activity against macrophages infected with Leishmania amastigotes. To be noted: Leishmania braziliensis, Macrophage, read-out: IC50 L. braziliensis PER006.
Protocol: A cloned line of Leishmania amazonensis(strain MHOM/BR/76/LTB-012) was used in all experiments. Axenically grown amastigote forms of L. amazonensis were maintained by weekly subpassages in MAA/20 medium (Sereno and Lemesre, Antimicrobial Agents and Chemotherapy 41, 972-976 (1997)) at 32±1° C. in 25 cm^2 tissue culture flasks. L. peruviana (strain MHOM/PE/LCA08) and L. braziliensis (strainMHOM/PE/PER006) were maintained in the promastigote stage in a biphasic medium (blood agar with 0.89% NaCl, pH 7.4) at 24° C., with sub-passage every 3 to 4 days. Promastigotes (5×10^6 parasites) were then transferred to 25 cm2 tissue culture flasks containing 5 ml of M199 medium supplemented with 10% foetal bovine serum (FBS), pH 7.4. After 4 days, exponential phase promastigotes were centrifuged for 10 minutes at 1500 g and 4° C. The supernatant was discarded and replaced by fresh M199 medium supplemented with 20% FBS, pH 5.5. Axenic amastigotes transformation was then induced by increasing the temperature to 34° C. and incubating for 96 h (Teixeira et al., Parasitology Research 88, 963-968 (2002)).
Extracted cells were immediately deposited on sterile 4×4 mm cover glasses and placed in each well of a 96-well plate. Plates were incubated for 24 h at 37° C., 5% CO2 to allow cell adhesion (Castillo et al, Journal of Ethnopharmacology 112, 410-414 (2007)). Pre-warmed complete M199 medium was used twice to remove non-adherent cells. A neutral red method (Fautz et al., Mutation Research 253, 173-179 (1991)) was employed to determine cell concentration. Approximately 7×10^4 viable cells were deposited in each well for adhesion.
Infection of macrophages by amastigotes was determined as follows. […] Twelve hours after infection, a solution of the compounds to be tested was added to the cultures at various concentrations and maintained at 37° C. in 5% CO2 for a further forty-eight hours more. The plates were fixed with methanol and stained with 10% Giemsa stain. The percentage of infected macrophages was determined microscopically at 100 times magnification. The number of intracellular amastigotes was determined in 300 cells. Following Delorenzi et al. Antimicrobial Agents and Chemotherapy, 45, 1349-1354 (2001)) the percentage of infection rate (% IR) of each culture was calculated as follows: % IR=100−(infection rate of the treated culture/infection rate of the untreated culture)×100.
All experiments were performed in triplicate. ANOVA was used to test for statistical significance of differences (Epi-Info, Statview student program). The total parasite burden was calculated as a mean number of amastigotes per cells multiplied by the number of infected macrophages.
Data set [4] relates to H460 cells. Description: Cell growth inhibition bioassay (sulforhodamine B). The format is cell-based, human. The following applies: Homo sapiens, NCI-H460; 48 h, SRB; read-out: GI50 in indicated cell line: H460. A digest of the protocol: as §1
The subject of data set [5] is MCF-7 cells. Description: Cell growth inhibition bioassay (sulforhodamine B). The data set is classed as cell-based, human. The following applies: Homo sapiens, MCF7; 48 h, SRB; read-out: GI50 in indicated cell line: MCF-7. In outline:
(§2)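 Human cancer cells (MCF-7 breast, DU145 and PC3 prostate, H460 large cell lung) were treated with compounds. Growth relative to solvent control was quantified by SRB protein stain.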

The test system of data set [6] is M-14 cells. The data set can be described thus: Cell growth inhibition bioassay (sulforhodamine B). The data set is classed as cell-based, human. The following applies: Homo sapiens, M14; 48 h, SRB; read-out: GI50 in indicated cell line: M-14. In outline: as §1
For data set [7], the system named is K562 cells. Description: Cell growth inhibition bioassay (sulforhodamine B). To be noted: Homo sapiens, K562; 48 h, SRB; read-out: GI50 in indicated cell line: K562. The format is cell-based, human. In outline:
as §1

The subject of data set [8] is HT-29 cells. Description: Cell growth inhibition bioassay (sulforhodamine B). The data set is classed as cell-based, human. To be noted: Homo sapiens, HT-29; 48 h, SRB; read-out: GI50 in indicated cell line: HT-29. A digest of the protocol: as §1
In data set [9] the test system is DU145 cells. Description: Cell growth inhibition bioassay (sulforhodamine B). The data set is classed as cell-based, human. The following applies: Homo sapiens, DU-145; 48 h, SRB; read-out: GI50 in indicated cell line: DU145. A digest of the protocol:
as §2

Data set [10] has as its system 3T3 cells. Description: Cell growth inhibition bioassay (sulforhodamine B). The following applies: Mus musculus, NIH3T3; 48 h, SRB; read-out: GI50 in indicated cell line: 3T3. The data set is classed as cell-based, mouse. A digest of the protocol:
as §1

Data set [11] relates to L. peruviana LCA08. Description: Activity against macrophages infected with Leishmania amastigotes. To be noted: Leishmania peruviana, Macrophage, read-out: IC50 L. peruviana LCA08.
In data set [12] the test system is M. tuberculosis H37Rv. Description: Conventional aerobic (MABA) culture assay, luminescence MIC. The format is cell-based, Mycobacterium tuberculosis.
For data set [13], the system named is axenic amastigotes of L. amazonensis (strain MHOM/BR/76/LTB-012). To be noted: Table 8b.

For the molecule `C(=N/Nc1ncnc2sc3c(c12)CCCC3)/c1ccccn1` [II-21], the 50% growth inhibitory concentration (GI50) in data set [1] came out at 0.156 µg/mL (≈ 0.504 µM); in data set [4], 0.123 µg/mL (≈ 0.398 µM); in data set [5], 0.026 µg/mL (≈ 0.084 µM); in data set [6], 0.078 µg/mL (≈ 0.252 µM); in data set [7], 0.051 µg/mL (≈ 0.165 µM); in data set [8], 0.03 µg/mL (≈ 0.097 µM). For the same molecule, the 50% growth inhibitory concentration (GI50) in [9] was found to be 0.115 µg/mL (≈ 0.372 µM); in data set [10], 0.013 µg/mL (≈ 0.042 µM). This molecule also showed an IC50 at 48 h in [2] of 2000 nM. The results for the concentration for half-maximal inhibition (IC50) in data set [3] and in data set [11] were 0.19 µg/mL (≈ 0.614 µM) and 0.2 µg/mL (≈ 0.646 µM), respectively. Further, it took 44.9 µg/mL (≈ 145 µM) to inhibit growth in data set [12] (Mycobacterium tuberculosis, 168 h, aerobic, 7 days, H37Rv) (MIC). In addition, the “Selectivity Index H37Rv” value in [12] (VERO vs MABA MIC) worked out at 0.2. Further, the “Selectivity Index” value in [13] worked out at 13.0.
